Some test systems named below: 786-0; CAKI-1; EKVX; HL-60; HT-29; Hs-578T; K562; KM12; NCI-H226; NCI/ADR-RES; OVCAR-8; RPMI-8226; SF-268; SK-MEL-28; SK-MEL-5; SN12C; SNB-75; UACC-62; UO-31.
Common to all, as to assay: inhibition of tumour cell growth, NCI panel, 48 h

Molecules are shown by their SMILES.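 Values below derive from 48-hour exposures of cells grown in 96-well plates, with endpoints linearly interpolated between the two concentrations bracketing the appropriate inhibition level. At the GI50, growth is halved.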 The source made the active and inactive calls. Cut-off read from the data, not from the text of the source: active = GI50 up to about 1.1 µM and inactive = higher.

On to `OC1(c2ccc(Cl)cc2)c2ccccc2C2=Nc3ccccc3CN21` (configuration not stated), for which the GI50 with 786-0 is 13.1 µM (inactive); with CAKI-1, 58.3 µM (inactive); in the experiment on EKVX, > 45.2 µM (inactive); with HL-60 it was 18.4 µM (inactive); with HT-29, 14.8 µM (inactive); with Hs-578T, 23 µM (inactive). Further, the GI50 was > 100 µM (inactive) in the experiment on K562; 28 µM (inactive) in the experiment with KM12; 37.8 µM (inactive) in the experiment with NCI-H226; 25 µM (inactive) with NCI/ADR-RES; 13.2 µM (inactive) in the experiment on OVCAR-8; 33.4 µM (inactive) in the experiment on RPMI-8226. For the same molecule, the GI50 was 33.2 µM (inactive) in the experiment on SF-268; 29 µM (inactive) with SK-MEL-28; > 46.1 µM (inactive) in the experiment on SK-MEL-5; 22.2 µM (inactive) in the experiment on SN12C; 17.8 µM (inactive) in the experiment on SNB-75; > 86.9 µM (inactive) in the experiment with UACC-62. Moreover, in the experiment with UO-31, the GI50 was 34.4 µM (inactive).

With `Nc1ccc(S(=O)(=O)NCc2nccs2)cc1`, the GI50 with 786-0 is 28.3 µM (inactive); with CAKI-1, 28.4 µM (inactive); in the experiment with EKVX it was 17.3 µM (inactive); in the experiment on HL-60, 20.4 µM (inactive); with HT-29, 16.7 µM (inactive); in the experiment on Hs-578T it was 27.3 µM (inactive). The GI50 was 23.5 µM (inactive) with K562; 20.9 µM (inactive) in the experiment with KM12; 22.2 µM (inactive) in the experiment on NCI-H226; 23.8 µM (inactive) with NCI/ADR-RES; 32.7 µM (inactive) with OVCAR-8; 25.8 µM (inactive) with RPMI-8226. The GI50 is 18.6 µM (inactive) in the experiment with SF-268; 18.1 µM (inactive) in the experiment with SK-MEL-28; 15.8 µM (inactive) in the experiment with SK-MEL-5; 19.2 µM (inactive) in the experiment with SN12C; 23.2 µM (inactive) in the experiment on SNB-75; 17.5 µM (inactive) in the experiment with UACC-62. Besides, the GI50 in the experiment with UO-31 is 22.3 µM (inactive).

For the molecule `Cc1cc(O)c2cc3c(O)c(O)ccc3cc2c1`, the GI50 in the experiment with 786-0 is 3.95 µM (inactive); in the experiment with CAKI-1 it was 2.08 µM (inactive); in the experiment on EKVX, 2.12 µM (inactive); in the experiment with HL-60, 1.73 µM (inactive); in the experiment with HT-29, 2.54 µM (inactive); with Hs-578T, 0.465 µM (active). The GI50 with K562 is 1.04 µM (active); in the experiment on KM12 it was 0.561 µM (active); in the experiment on NCI-H226, 1.23 µM (inactive); in the experiment with NCI/ADR-RES, 0.438 µM (active); with OVCAR-8, 0.743 µM (active); with RPMI-8226 it was 0.326 µM (active). Besides, the GI50 was 1.07 µM (active) in the experiment with SF-268; 9.51 µM (inactive) in the experiment with SK-MEL-28; 0.243 µM (active) in the experiment with SK-MEL-5; 2.46 µM (inactive) in the experiment with SN12C; 0.488 µM (active) in the experiment with SNB-75; 1.52 µM (inactive) with UACC-62. For the same molecule, in the experiment with UO-31, the GI50 was 0.7 µM (active).

Turning to `c1cc2nnc1SCCSCCCSCCS2`, the GI50 in the experiment with 786-0 was 67 µM (inactive); with CAKI-1, > 100 µM (inactive); in the experiment on EKVX it was > 100 µM (inactive); in the experiment on HL-60 it was > 100 µM (inactive); in the experiment on HT-29, > 100 µM (inactive); in the experiment with Hs-578T, > 100 µM (inactive). In addition, the GI50 in the experiment on K562, in the experiment with KM12, with NCI-H226, in the experiment on NCI/ADR-RES, with OVCAR-8 and in the experiment on RPMI-8226 was > 100 µM (inactive) in each case. In addition, the GI50 in the experiment on SF-268 was 2.88 µM (inactive); with SK-MEL-28 it was 29.2 µM (inactive); in the experiment with SK-MEL-5, > 100 µM (inactive); in the experiment with SN12C it was > 100 µM (inactive); in the experiment on SNB-75, 5.83 µM (inactive); in the experiment on UACC-62 it was > 100 µM (inactive). Besides, the GI50 in the experiment on UO-31 was > 100 µM (inactive).

Consider `CNC(=S)N(C1CCCCC1)C1CCCCC1`, for which the GI50 in the experiment on 786-0 is > 100 µM (inactive); with CAKI-1, 70.6 µM (inactive); in the experiment on EKVX it was 34.8 µM (inactive); with HL-60, 27.4 µM (inactive); with HT-29, 41.1 µM (inactive); in the experiment on Hs-578T it was 26.3 µM (inactive). For the same molecule, the GI50 in the experiment on K562 was 29.9 µM (inactive); in the experiment with KM12 it was 55.8 µM (inactive); in the experiment on NCI-H226, > 100 µM (inactive); in the experiment on NCI/ADR-RES it was > 100 µM (inactive); with OVCAR-8 it was > 100 µM (inactive); with RPMI-8226, 35.7 µM (inactive). Moreover, the GI50 in the experiment with SF-268 is > 100 µM (inactive); in the experiment with SK-MEL-28, > 100 µM (inactive); in the experiment with SK-MEL-5 it was 49 µM (inactive); with SN12C, > 100 µM (inactive); with SNB-75, 65.3 µM (inactive); with UACC-62 it was > 100 µM (inactive). In the experiment with UO-31, the GI50 was 85.5 µM (inactive).

For the molecule `O=c1[nH]nc(-c2ccccc2)n1/N=C\c1ccccc1`, the GI50 with 786-0, in the experiment with CAKI-1, with EKVX, in the experiment on HL-60, in the experiment on HT-29 and in the experiment with Hs-578T was > 100 µM (inactive) each time. The GI50 with K562, in the experiment on KM12, in the experiment on NCI-H226, in the experiment with NCI/ADR-RES, in the experiment with OVCAR-8 and in the experiment with RPMI-8226 was > 100 µM (inactive) throughout. For the same molecule, the GI50 with SF-268 was 31 µM (inactive); with SK-MEL-28 it was > 100 µM (inactive); in the experiment on SK-MEL-5 it was > 100 µM (inactive); in the experiment with SN12C, > 100 µM (inactive); with SNB-75, > 100 µM (inactive); in the experiment on UACC-62, > 100 µM (inactive). The GI50 in the experiment on UO-31 was > 100 µM (inactive).

As to `Nn1c(Cc2ccc([N+](=O)[O-])cc2)n[nH]c1=O`, the GI50 in the experiment on 786-0, in the experiment on CAKI-1, with EKVX, in the experiment on HL-60, in the experiment on HT-29 and in the experiment on Hs-578T was > 100 µM (inactive) each time. Besides, the GI50 in the experiment with K562, in the experiment with KM12, with NCI-H226, in the experiment on NCI/ADR-RES, in the experiment on OVCAR-8 and with RPMI-8226 was > 100 µM (inactive) in each case. In addition, the GI50 in the experiment on SF-268, in the experiment with SK-MEL-28, in the experiment on SK-MEL-5, with SN12C, in the experiment on SNB-75 and in the experiment on UACC-62 was > 100 µM (inactive) throughout. In addition, the GI50 in the experiment on UO-31 is > 100 µM (inactive).

For `CCOC(=O)C(NC(=O)c1cccc(Cl)c1)(N1CCN(c2cc3c(cc2F)c(=O)c(C(=O)O)cn3CC)CC1)C(F)(F)F` (configuration not stated), the GI50 is 14.7 µM (inactive) in the experiment with 786-0; 23.7 µM (inactive) in the experiment on CAKI-1; 17.1 µM (inactive) in the experiment on EKVX; 4.47 µM (inactive) with HL-60; 17.6 µM (inactive) in the experiment with HT-29; 15.6 µM (inactive) in the experiment on Hs-578T. Further, the GI50 with K562 is 5.73 µM (inactive); in the experiment with KM12, 11.7 µM (inactive); in the experiment on NCI-H226, 18.2 µM (inactive); in the experiment with NCI/ADR-RES, 39.8 µM (inactive); in the experiment with OVCAR-8, 16.6 µM (inactive); with RPMI-8226, 10.9 µM (inactive). Besides, the GI50 was 14.1 µM (inactive) in the experiment with SF-268; 17 µM (inactive) in the experiment with SK-MEL-28; 14.2 µM (inactive) in the experiment with SK-MEL-5; 24.4 µM (inactive) with SN12C; 21.4 µM (inactive) with SNB-75; 16.4 µM (inactive) in the experiment with UACC-62. For the same molecule, the GI50 with UO-31 was 19.2 µM (inactive).

These data come from ChEMBL document CHEMBL1201862, “PubChem BioAssay data set” (2004).
